Assay results: patent publication US10206860B2, “Biguanide preservation of precipitated calcium carbonate” (Colgate-Palmolive Company, priority 2009, dated 2019)

Assay: Association of PHMB with PCC after drying (drum dryer)
Assay type: physicochemical
Conditions: only water is evaporated
Excerpt: Although PHMB is water soluble, with the drying process used for PCC (a drum dryer), only water is evaporated; the PHMB remains associated with the PCC.

In the case of poly[(hexamethylene)biguanide] [PHMB], the “Association of PHMB with the PCC after the drying process” value is reported as “remains associated with the PCC after the drying process”.
